From patent US9643967B2, “Pyrrolo[3,2-c]pyridine derivatives as TLR inhibitors” (TAKEDA PHARMACEUTICAL COMPANY LIMITED, priority 2013, dated 2017)

Molecular target: T1, hTLR9 (Homo sapiens, UniProt Q9NR96)
T1 construct: expressed in transfected cells; host or cells: HEK-Blue-hTLR9 cells (HEK293)
T1 sequence (Q9NR96 26-1032): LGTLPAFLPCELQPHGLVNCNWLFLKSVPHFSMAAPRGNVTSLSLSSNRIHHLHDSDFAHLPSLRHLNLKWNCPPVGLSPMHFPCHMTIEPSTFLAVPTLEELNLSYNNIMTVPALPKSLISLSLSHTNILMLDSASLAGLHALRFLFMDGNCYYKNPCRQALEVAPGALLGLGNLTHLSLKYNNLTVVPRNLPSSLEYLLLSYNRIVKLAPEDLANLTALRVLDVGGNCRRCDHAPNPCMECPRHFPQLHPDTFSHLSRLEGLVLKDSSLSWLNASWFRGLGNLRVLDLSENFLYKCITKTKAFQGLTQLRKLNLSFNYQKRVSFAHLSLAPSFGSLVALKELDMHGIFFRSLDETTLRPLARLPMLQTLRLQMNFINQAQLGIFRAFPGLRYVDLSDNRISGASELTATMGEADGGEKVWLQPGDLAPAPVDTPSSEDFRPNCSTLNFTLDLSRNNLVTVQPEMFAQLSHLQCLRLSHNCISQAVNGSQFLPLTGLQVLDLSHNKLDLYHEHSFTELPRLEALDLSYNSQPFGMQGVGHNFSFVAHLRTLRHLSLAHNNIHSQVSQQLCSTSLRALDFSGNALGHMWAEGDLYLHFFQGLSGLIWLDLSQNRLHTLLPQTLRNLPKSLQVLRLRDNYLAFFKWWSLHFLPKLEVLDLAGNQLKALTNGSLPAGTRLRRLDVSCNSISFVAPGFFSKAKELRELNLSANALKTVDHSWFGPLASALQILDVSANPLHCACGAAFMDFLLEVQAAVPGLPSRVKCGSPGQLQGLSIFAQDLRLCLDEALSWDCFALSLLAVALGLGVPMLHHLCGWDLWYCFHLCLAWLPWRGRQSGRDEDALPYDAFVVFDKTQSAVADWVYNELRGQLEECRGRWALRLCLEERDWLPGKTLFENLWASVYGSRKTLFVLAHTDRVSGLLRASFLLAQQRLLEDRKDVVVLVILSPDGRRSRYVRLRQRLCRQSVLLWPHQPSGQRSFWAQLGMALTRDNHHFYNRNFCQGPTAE
Experiment: hTLR9 antagonism (SEAP inhibition assay) in HEK-Blue-hTLR9 (HEK293) cells, ODN-2006 stimulated
Type: cell-based
Settings: SEAP, HEK-Blue-hTLR9 cells; for inhibition at 1 µM: HEK-Blue hTLR9, 1 μM, read-out: hTLR9 inhibitory activity (% at 1 μM)
Protocol: hTLR9 Antagonism (SEAP Inhibition Assay) in HEK293 Cell Lines
The SEAP reporter gene in HEK-Blue™-hTLR9 cells is placed under the control of the IFN-b minimal promoter fused to five NF-kB and AP-1 binding sites. The stimulation with a TLR9 ligand (ODN-2006) activates NF-kB and AP-1 which induces the production of SEAP. Levels of SEAP are determined with QUANTI-Blue™ detection medium that turns purple/blue in the presence of alkaline phosphatase. Decrease in the levels of SEAP production as indicated by reduction in absorbance at 650 nm is directly co-related with the TLR9 inhibitory activity of the antagonist (NCE).
HEK-Blue™-hTLR9 cells were maintained in DMEM with 10% FBS, 1% Penicillin/Streptomycin/Amphotericin (complete growth medium) and 0.2% Normocin. For the assay, cells were dissociated by washing in 1×PBS and re-suspended in complete DMEM. Cells were seeded at a density of 20000 cells per well; (40 μl per well) in a 384 well assay plate.
5 μl of 10× antagonist (NCE) was added to the cells in triplicates for each concentration. The plate was incubated for half an hour at 37° C. with 5% CO2. 5 μl of agonist (ODN-2006) was added and the plate was incubated overnight for 18 hours at 37° C. with 5% CO2. 5 μl of supernatant was transferred to a 384 well reading plate and to this 45 μl of Quanti-Blue™ detection reagent was added. The plate was then incubated for an hour at 37° C. SEAP activity in the supernatant was indicated by change in the pink color of Quanti-Blue™ detection reagent to purple/blue and the absorbance was read at 650 nm in the end point mode.

Row | SMILES | inhibition at 1 µM | hTLR9 inhibitory activity (% at 1 μM)
1 | CC(C)N1CCN(c2ccc(-c3nccc4[nH]c(CN5CCC6(CC5)CC(O)C6)cc34)cc2)CC1 [Example A13, 7-[[4-[4-(4-isopropylpiperazin-1-yl)phenyl]-1H-pyrrolo[3,2-c]pyridin-2-yl]methyl]-7-azaspiro[3.5] nonan-2-ol] | 100% | –
2 | CN1CCN(c2cccc(-c3nccc4[nH]c(CN5CCOCC5)cc34)c2)CC1 [Example A61, 4-[[4-[3-(4-methylpiperazin-1-yl)phenyl]-1H-pyrrolo[3,2-c]pyridin-2-yl]methyl]morpholine] | 89.5% | –
3 | CC(C)N1CCN(C2CCC(c3nccc4[nH]c(CN5CCOCC5)cc34)CC2)CC1 (stereo not shown) [Example A80, 4-[[4-[4-(4-isopropylpiperazin-1-yl)cyclohexyl]-1H-pyrrolo[3,2-c]pyridin-2-yl]methyl]morpholine] | – | 95.8%
4 | Cc1cc2[nH]c(CN3CCOCC3)cc2c(-c2ccc(N3CCN(C(C)C)CC3)cc2)n1 [Example A4, 4-[[4-[4-[4-isopropylpiperazin-1-yl)phenyl]-6-methyl-1H-pyrrolo[3,2-c]pyridin-2-yl]methyl] morpholine] | 100% | –
5 | CC(C)N1CCN(c2ccc(-c3nccc4[nH]c(CN5CCOCC5)cc34)cn2)CC1 [Example A53, 4-[[4-[6-(4-isopropylpiperazin-1-yl)-3-pyridyl]-1H-pyrrolo[3,2-c]pyridin-2-yl]methyl]morpholine] | 77% | –
6 | CCN1CCN(c2ccc(-c3nc(C)cc4[nH]c(CN5CCOCC5)cc34)cc2)CC1 [Example A5, 4-[[4-[4-(4-ethylpiperazin-1-yl)phenyl]-6-methyl-1H-pyrrolo[3,2-c]pyridin-2-yl]methyl] morpholine] | 100% | –
7 | CC(C)N1CCC(c2ccc(-c3nccc4[nH]c(CN5CCOCC5)cc34)cn2)CC1 [Example A64, 4-[[4-[6-(1-isopropyl-4-piperidyl)-3-pyridyl]-1H-pyrrolo[3,2-c]pyridin-2-yl]methyl]morpholine] | 73% | –
8 | CC(C)N1CCN(c2ccc(-c3nccc4[nH]c(CN5CCC(O)CC5)cc34)cc2)CC1 [Example A12, 1-[[4-[4-(4-isopropylpiperazin-1-yl)phenyl]-1H-pyrrolo[3,2-c]pyridin-2-yl]methyl] piperidin-4-ol] | 100% | –
9 | c1cc2[nH]c(CN3CCOCC3)cc2c(-c2ccc(N3CCNCC3)cc2)n1 [Example A42, 4-[[4-(4-(piperazin-1-yl)phenyl)-1H-pyrrolo[3,2-c]pyridin-2-yl]methyl] morpholine] | 96% | –
10 | CN1CCN(Cc2ccc(-c3nccc4[nH]c(CN5CCOCC5)cc34)cc2)CC1 [Example A60, 4-[[4-[4-[(4-methylpiperazin-1-yl)methyl]phenyl]-1H-pyrrolo[3,2-c]pyridin-2-yl]methyl]morpholine] | 86% | –
11 | CC(C)N1CCC(c2ccc(-c3nccc4[nH]c(CN5CCOCC5)cc34)cc2)CC1 [Example A70, 4-[[4-[4-(1-isopropyl-4-piperidyl)phenyl]-1H-pyrrolo[3,2-c]pyridin-2-yl]methyl]morpholine] | 100% | –
12 | Cc1cc2[nH]c(CN3CCC4(CC3)CC(O)C4)cc2c(-c2ccc(N3CCN(C(C)C)CC3)cc2)n1 [Example A29, 7-[[4-[4-(4-isopropylpiperazin-1-yl)phenyl]-6-methyl-1H-pyrrolo[3,2-c]pyridin-2-yl]methyl]-7-azaspiro[3.5] nonan-2-ol] | 100% | –
13 | Cc1nc(-c2ccc(N3CCN(C(C)C)CC3)cc2)c2cc(CN3CCCCC3)[nH]c2c1C [Example A39, 4-[4-(4-isopropylpiperazin-1-yl)phenyl]-6,7-dimethyl-2-(1-piperidylmethyl)-1H-pyrrolo[3,2-c]pyridine] | 74.3% | –
14 | Cc1cc2[nH]c(Cn3cccn3)cc2c(-c2ccc(N3CCN(C(C)C)CC3)cc2)n1 [Example A28, 4-[4-(4-isopropylpiperazin-1-yl)phenyl]-6-methyl-2-(pyrazol-1-ylmethyl)-1H-pyrrolo[3,2-c]pyridine] | 91% | –

Further lines, results first:

Row | inhibition at 1 µM | hTLR9 inhibitory activity (% at 1 μM) | SMILES
15 | 93.3% | – | Cc1cc2c(cc(CCN3CCOCC3)n2C)c(-c2ccc(N3CCN(C(C)C)CC3)cc2C)n1 [Example B15, 4-[2-[4-[4-(4-isopropylpiperazin-1-yl)-2-methyl-phenyl]-1,6-dimethyl-pyrrolo[3,2-c]pyridin-2-yl]ethyl]morpholine]
16 | 99.4% | – | Cc1cc2c(cc(CCN3CCOCC3)n2C)c(-c2ccc(C3CCN(C(C)C)CC3)cc2)n1 [Example B31, 4-[2-[4-[4-(1-isopropyl-4-piperidyl)phenyl]-1,6-dimethyl-pyrrolo[3,2-c]pyridin-2-yl]ethyl]morpholine]
17 | 91.5% | – | Cc1cc2c(cc(CCN3CCOCC3)n2C)c(-c2ccc(N3CCN(C(C)C)CC3)cc2C(F)(F)F)n1 [Example B17, 4-[2-[4-[4-(4-isopropylpiperazin-1-yl)-2-(trifluoromethyl)phenyl]-1,6-dimethyl-pyrrolo[3,2-c]pyridin-2-yl]ethyl]morpholine]
18 | 80% | – | Cc1cc2c(cc(CCN3CCOCC3)n2C)c(-c2ccc(N3CCN(C(C)C)CC3)cc2)n1 [Example B11, 4-[2-[4-[4-(4-isopropylpiperazin-1-yl)phenyl]-1,6-dimethyl-pyrrolo[3,2-c]pyridin-2-yl]ethyl]morpholine]
19 | 99.2% | – | Cc1cc2c(cc(CCN3CCOCC3)n2C)c(-c2ccc(N3CCN(C(C)C)[C@@H](C)C3)cc2)n1 [Example B23, 4-[2-[4-[4-[(3S)-4-isopropyl-3-methyl-piperazin-1-yl]phenyl]-1,6-dimethyl-pyrrolo[3,2-c]pyridin-2-yl]ethyl]morpholine]
20 | 100% | – | Cc1cc2c(cc(CCN3CCOCC3)n2C)c(-c2cccc(N3CCN(C(C)C)CC3)c2)n1 [Example B21, 4-[2-[4-[3-(4-isopropylpiperazin-1-yl)phenyl]-1,6-dimethyl-pyrrolo[3,2-c]pyridin-2-yl]ethyl]morpholine]
21 | 99.1% | – | Cc1cc2c(cc(CCCN3CCOCC3)n2C)c(-c2ccc(N3CCN(C(C)C)CC3)cc2)n1 [Example C6, 4-[3-[4-[4-(4-isopropylpiperazin-1-yl)phenyl]-1,6-dimethyl-pyrrolo[3,2-c]pyridin-2-yl]propyl]morpholine]
22 | – | 95.8% | Cc1cc2c(cc(CCN3CCOCC3)n2C)c(C2CCC(N3CCN(C(C)C)CC3)CC2)n1 (stereo not shown) [Example B27, 4-[2-[4-[4-(4-isopropylpiperazin-1-yl)cyclohexyl]-1,6-dimethyl-pyrrolo[3,2-c]pyridin-2-yl]ethyl]morpholine]
23 | 81.6% | – | Cc1nc(-c2ccc(N3CCN(C)CC3)cc2)c2cc(CCN3CCOCC3)[nH]c2c1C [Example B7, 4-[2-[6,7-dimethyl-4-[4-(4-methylpiperazin-1-yl)phenyl]-1H-pyrrolo[3,2-c]pyridin-2-yl]ethyl]morpholine]
24 | 89.9% | – | Cc1cc2c(cc(CCN3CCOCC3)n2C)c(C2CCC(N3CCN(C(C)C)CC3)CC2)n1 (stereo not shown) [Example B26, 4-[2-[4-[4-(4-isopropylpiperazin-1-yl)cyclohexyl]-1,6-dimethyl-pyrrolo[3,2-c]pyridin-2-yl]ethyl]morpholine]
25 | 100% | – | Cc1cc2[nH]c(CCN3CCOCC3)cc2c(-c2ccc(N3CCN(C)CC3)cc2)n1 [Example B4, 4-[2-[6-methyl-4-[4-(4-methylpiperazin-1-yl)phenyl]-1H-pyrrolo[3,2-c]pyridin-2-yl]ethyl]morpholine]
